The text below walks through data of US10335392B2, “Cyclic compounds useful as modulators of TNF α” (BRISTOL-MYERS SQUIBB COMPANY, priority 2015, dated 2019).

Sequence of TNFα (P01375 77-233): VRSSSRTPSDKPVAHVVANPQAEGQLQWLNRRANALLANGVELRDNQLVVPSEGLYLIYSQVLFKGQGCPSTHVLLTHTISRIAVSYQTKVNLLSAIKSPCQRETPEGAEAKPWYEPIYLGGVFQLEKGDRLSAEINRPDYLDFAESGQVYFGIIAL

This test addresses TNFα (Homo sapiens (Human), UniProt P01375). Kind of test: TNF induced HEK-Blue assay. The format is cell-based. Conditions: TNFα 0.5 ng/ml; HEK-Blue-CD40L cells, NF-kB-driven secreted alkaline phosphatase reporter; 18 h. On the procedure:
TNF or CD40L-Induced HEK-Blue Assay
Test compounds serially diluted in DMSO were plated in an assay plate (LABCYTE, Cat. # LP-0200) at final concentrations ranging from 0.004 μM to 25 μM. TNFα (final concentration 0.5 ng/ml) or CD40L (final concentration 30 ng/ml) in assay buffer [DMEM, 4.5 g/l glucose (Gibco, Cat. 21063-029), 10% FBS (Sigma, F4135), 1% Penicillin-Streptomycin (Gibco, Cat. 15140-122), 1% Anti-Anti (Gibco, Cat. 15240-112) and 2 mM L-glutamine (Gibco, Cat. 25030-081)] was then added to the assay plate. After a 30 minute pre-incubation at 37° C. and 5% CO2, HEK-Blue™-CD40L cells (INVIVOGEN, Cat. Code hkb-cd40) containing a NF-kB-driven secreted alkaline phosphatase reporter gene were seeded into the assay plate at a density of 20,000 cells per well. This plate was then incubated for 18 h at 37° C. and 5% CO2. Secreted alkaline phosphatase expression was measured using QUANTI-Blue™ (INVIVOGEN, Cat. Code rep-qb1) according to manufacturer's specifications and the assay plate was read on a PerkinElmer Envision at 620 nm.
Inhibition data for the test compound over a range of concentrations was plotted as percentage inhibition of the test compound (100%=maximum inhibition). IC50 values were determined after correcting for background [(sample read−mean of low control)/(mean of high control−mean of low control)] where by the low control is DMSO without stimulation and high control is DMSO with stimulation. The IC50 is defined as the concentration of test compound which produces 50% inhibition and was quantified using the 4 parameter logistic equation to fit the data.
For orientation: IC50 means the concentration needed to halve the response being measured. A low value points to greater potency. On to `CNC(=O)c1ccc(-c2cc3c(cc2F)nc2n3[C@@H](c3ccccc3OC(F)F)[C@H]3C[C@@H]23)cn1` [Example 8, 5-((1aR,8R,8aS)-8-(2-(difluoromethoxy)phenyl)-4-fluoro-1,1a,8,8a-tetrahydrobenzo[d]cyclopropa[3,4]pyrrolo[1,2-a]imidazol-5-yl)-N-methylpicolinamide], for which the IC50 fell in the range of 1 to 10 µM. As for `O=C1CN(c2ncc(-c3cc4c(cc3F)nc3n4[C@@H](c4ccccc4OC(F)F)[C@H]4C[C@@H]34)cn2)CCN1` [Example 9, 4-(5-((1aR,8R,8aS)-8-(2-(difluoromethoxy)phenyl)-4-fluoro-1,1a,8,8a-tetrahydrobenzo[d]cyclopropa[3,4]pyrrolo[1,2-a]imidazol-5-yl)pyrimidin-2-yl)piperazin-2-one], the figure is less than 1 µM; as for `N#Cc1ccc(-c2cc3c(cc2F)nc2n3[C@@H](c3ccccc3OC(F)F)[C@H]3C[C@@H]23)cn1` [Example 10, 5-((1aR,8R,8aS)-8-(2-(difluoromethoxy)phenyl)-4-fluoro-1,1a,8,8a-tetrahydrobenzo[d]cyclopropa[3,4]pyrrolo[1,2-a]imidazol-5-yl)picolinonitrile], 1 to 10 µM; as for `CC(C)(O)c1ccc(-c2cc3c(cc2F)nc2n3[C@@H](c3ccccc3OC(F)F)[C@H]3C[C@@H]23)cc1` [Example 12, 2-(4-((1aR,8R,8aS)-8-(2-(difluoromethoxy)phenyl)-4-fluoro-1,1a,8,8a-tetrahydrobenzo[d]cyclopropa[3,4]pyrrolo[1,2-a]imidazol-5-yl)phenyl)propan-2-ol], less than 1 µM. Molecule `CC(C)(O)c1ccc(-c2cc3c(cc2F)nc2n3[C@@H](c3ccccc3OC(F)F)[C@H]3C[C@@H]23)cn1` [Example 13, 2-(5-((1aR,8R,8aS)-8-(2-(difluoromethoxy)phenyl)-4-fluoro-1,1a,8,8a-tetrahydrobenzo[d]cyclopropa[3,4]pyrrolo[1,2-a]imidazol-5-yl)pyridin-2-yl)propan-2-ol] displayed an IC50 of less than 1 µM. As for `OC1(c2ncc(-c3cc4c(cc3F)nc3n4[C@@H](c4ccccc4OC(F)F)[C@H]4C[C@@H]34)cn2)COC1` [Example 14, 3-(5-((1aR,8R,8aS)-8-(2-(difluoromethoxy)phenyl)-4-fluoro-1,1a,8,8a-tetrahydrobenzo[d]cyclopropa[3,4]pyrrolo[1,2-a]imidazol-5-yl)pyrimidin-2-yl)oxetan-3-ol], the figure is less than 1 µM; as for `O=S1(=O)CCN(c2ncc(-c3cc4c(cc3F)nc3n4[C@@H](c4ccccc4OC(F)F)[C@H]4C[C@@H]34)cn2)CC1` [Example 15, 4-(5-((1aR,8R,8aS)-8-(2-(difluoromethoxy)phenyl)-4-fluoro-1,1a,8,8a-tetrahydrobenzo[d]cyclopropa[3,4]pyrrolo[1,2-a]imidazol-5-yl)pyrimidin-2-yl) thiomorpholine 1,1-dioxide], less than 1 µM; as for `CC(C)(O)Cn1cc(-c2cc3c(cc2F)nc2n3[C@@H](c3ccccc3OC(F)F)[C@H]3C[C@@H]23)cn1` [Example 16, 1-(4-((1aR,8R,8aS)-8-(2-(difluoromethoxy)phenyl)-4-fluoro-1,1a,8,8a-tetrahydrobenzo[d]cyclopropa[3,4]pyrrolo[1,2-a]imidazol-5-yl)-1H-pyrazol-1-yl)-2-methylpropan-2-ol], 1 to 10 µM.

Regarding `CC(C)(C)OC(=O)N1CC=C(c2cc3c(cc2F)nc2n3[C@@H](c3ccccc3OC(F)F)[C@H]3C[C@@H]23)CC1` [Example 17, tert-butyl 4-((1aR,8R,8aS)-8-(2-(difluoromethoxy)phenyl)-4-fluoro-1,1a,8,8a-tetrahydrobenzo[d]cyclopropa[3,4]pyrrolo[1,2-a]imidazol-5-yl)-3,6-dihydropyridine-1(2H)-carboxylate], the IC50 is 1 to 10 µM. In the case of `O=C(O)CN1CCN(c2ncc(-c3cc4c(cc3F)nc3n4[C@H](c4ccccc4OC(F)F)[C@@H]4C[C@H]34)cn2)CC1` [Example 18, 2-(4-(5-((1aS,8S,8aR)-8-(2-(difluoromethoxy)phenyl)-4-fluoro-1,1a,8,8a-tetrahydrobenzo[d]cyclopropa[3,4]pyrrolo[1,2-a]imidazol-5-yl)pyrimidin-2-yl)piperazin-1-yl)acetic acid], the half-inhibitory concentration (IC50) was less than 1 µM. As for `NC(=O)c1ccc(-c2cc3c(cc2F)nc2n3[C@H](c3ccccc3OC(F)F)[C@@H]3C[C@H]23)cn1` [Example 19, 5-((1aS,8S,8aR)-8-(2-(difluoromethoxy)phenyl)-4-fluoro-1,1a,8,8a-tetrahydrobenzo[d]cyclopropa[3,4]pyrrolo[1,2-a]imidazol-5-yl)picolinamide], the IC50 lay in the range of 1 to 10 µM.

Take `NC(=O)c1ccc(-c2cc3c(cc2F)nc2n3[C@@H](c3ccccc3OC(F)F)[C@@H]3C[C@H]23)cn1` [Example 22, 5-((1aS,8R,8aR)-8-(2-(difluoromethoxy)phenyl)-4-fluoro-1,11a,8,8a-tetrahydrobenzo[d]cyclopropa[3,4]pyrrolo[1,2-a]imidazol-5-yl)picolinamide]: the IC50 was less than 1 µM.

`CC(C)(O)c1ncc(-c2cc3c(cc2F)nc2n3[C@@H](c3ccccc3Oc3ccccc3)[C@@H]3C[C@H]23)cn1` [Example 27, 2-(5-((1aS,8R,8aR)-4-fluoro-8-(2-phenoxyphenyl)-1,1a,8,8a-tetrahydrobenzo[d]cyclopropa[3,4]pyrrolo[1,2-a]imidazol-5-yl)pyrimidin-2-yl)propan-2-ol] gave an IC50 of 1 to 10 µM. As for `CC(C)(O)c1ncc(-c2cc3c(cc2F)nc2n3[C@H](c3ccccc3Oc3ccccc3)[C@@H]3C[C@H]23)cn1` [Example 28, 2-(5-((1aS,8S,8aR)-4-fluoro-8-(2-phenoxyphenyl)-1,1a,8,8a-tetrahydrobenzo[d]cyclopropa[3,4]pyrrolo[1,2-a]imidazol-5-yl)pyrimidin-2-yl)propan-2-ol], the figure is 1 to 10 µM; as for `CC(C)(O)c1ncc(-c2cc3c(cc2F)nc2n3[C@@H](c3ccccc3Oc3ccccc3F)[C@@H]3C[C@H]23)cn1` [Example 29, 2-(5-((1aS,8R,8aR)-4-fluoro-8-(2-(2-fluorophenoxy)phenyl)-1,1a,8,8a-tetrahydrobenzo[d]cyclopropa[3,4]pyrrolo[1,2-a]imidazol-5-yl)pyrimidin-2-yl)propan-2-ol], 1 to 10 µM; as for `CC(C)(O)c1ncc(-c2cc3c(cc2F)nc2n3[C@H](c3ccccc3Oc3ccccc3F)[C@@H]3C[C@H]23)cn1` [Example 30, 2-(5-((1aS,8S,8aR)-4-fluoro-8-(2-(2-fluorophenoxy)phenyl)-1,1a,8,8a-tetrahydrobenzo[d]cyclopropa[3,4]pyrrolo[1,2-a]imidazol-5-yl)pyrimidin-2-yl)propan-2-ol], 10 to 25 µM.

In the case of `Fc1cc2nc3n(c2cc1-c1cnc(N2CCOCC2)nc1)[C@@H](c1ccccc1OC(F)F)[C@@H]1C[C@H]31` [Example 31, 4-(5-((1aS,8R,8aR)-8-(2-(difluoromethoxy)phenyl)-4-fluoro-1,1a,8,8a-tetrahydrobenzo[d]cyclopropa[3,4]pyrrolo[1,2-a]imidazol-5-yl)pyrimidin-2-yl) morpholine], the IC50 is less than 1 µM.

In turn, `Fc1cc2nc3n(c2cc1-c1cnc(N2CCOCC2)nc1)[C@H](c1ccccc1OC(F)F)[C@@H]1C[C@H]31` [Example 32, 4-(5-((1aS,8S,8aR)-8-(2-(difluoromethoxy)phenyl)-4-fluoro-1,1a,8,8a-tetrahydrobenzo[d]cyclopropa[3,4]pyrrolo[1,2-a]imidazol-5-yl)pyrimidin-2-yl) morpholine] displayed an IC50 of 1 to 10 µM.

In turn, `O=C(O)CN1CCN(c2ncc(-c3cc4c(cc3F)nc3n4[C@@H](c4ccccc4OC(F)F)[C@@H]4C[C@H]34)cn2)CC1` [Example 33, 2-(4-(5-((1aS,8R,8aR)-8-(2-(difluoromethoxy)phenyl)-4-fluoro-1,1a,8,8a-tetrahydrobenzo[d]cyclopropa[3,4]pyrrolo[1,2-a]imidazol-5-yl)pyrimidin-2-yl)piperazin-1-yl)acetic acid] came in with an IC50 of less than 1 µM. As for `CC(C)(O)c1ncc(-c2cc3c(cc2F)nc2n3[C@@H](c3ccccc3OCc3ccncc3)[C@@H]3C[C@H]23)cn1` [Example 34, 2-(5-((1aS,8R,8aR)-4-fluoro-8-(2-(pyridin-4-ylmethoxy)phenyl)-1,1a,8,8a-tetrahydrobenzo[d]cyclopropa[3,4]pyrrolo[1,2-a]imidazol-5-yl)pyrimidin-2-yl)propan-2-ol], the figure is 1 to 10 µM.

Consider `CC(C)(O)c1ncc(-c2cc3c(cc2F)nc2n3[C@H](c3ccccc3OCc3ccncc3)[C@@H]3C[C@H]23)cn1` [Example 35, 2-(5-((1aS,8S,8aR)-4-fluoro-8-(2-(pyridin-4-ylmethoxy)phenyl)-1,1a,8,8a-tetrahydrobenzo[d]cyclopropa[3,4]pyrrolo[1,2-a]imidazol-5-yl)pyrimidin-2-yl)propan-2-ol], for which the IC50 was 10 to 25 µM.
